The values below come from patent US20160032269A1, “BUFFERS FOR USE WITH POLYMERASES” (priority 2014, published 2016).

Entries after “also recorded” stand apart in the source; their conditions may differ.

Series [1] deals with polymerase derived from two parental polymerases, Pfu and DeepVent, and fused with an Sso7d. Kind of series: Effect of surfactant additives on PCR yield (agarose gel). Type of series: biochemical. Particulars: for PCR yield: additive in PCR reaction mixture, 20 ng template DNA, FIG. 1. The protocol:
The effect of various surfactants on polymerase activity and yield in a PCR reaction mixture was tested. A polymerase derived from two parental polymerases, Pfu and DeepVent, and fused with an Sso7d, was formulated in a variety of reaction mixtures in an effort to identify reaction components that improve PCR yield.
A reaction mixture comprising polymerase, Tris-HCL pH 9.0, KCl, ammonium sulfate, 20 ng template DNA and target primers was tested with one or more additional components added as follows (results shown in FIG. 1):
Ranges of concentration of CTAB and SDS were tested and additional components such as octyl b-D-glucopyranoside (OGP) and bovine serum albumin (BSA) were also tested. See, FIG. 2. The lanes of FIG. 2. are described in Table 2 below:
(§1) In view of the surprising success of the reaction mixture comprising SDS and CTAB, a 5× stock solution was generated.

The nature of series [2]: Precipitate formation in 5× stock solution. Type of series: physicochemical.
Source text: as §1

`C[C@H](CCC(=O)NCCC[N+](C)(C)CCCS(=O)(=O)[O-])[C@H]1CC[C@H]2[C@@H]3[C@H](O)C[C@@H]4C[C@H](O)CC[C@]4(C)[C@H]3C[C@H](O)[C@]12C` [CHAPS, 3-[(3-cholamidopropyl)dimethylammonio]-1-propanesulfonate]: the “interference with PCR” value in series [1] (CHAPS in 5× stock solution used in PCR reactions, data not shown) is given as “did not interfere with PCR”. Besides, the “precipitate in stock solution” value in series [2] (5× stock solution contained 1% CHAPS) is on record as “no precipitate was observed”; in series [2] (CHAPS added to the 5× stock solution), “prevented formation of a precipitate”.

Take `CCCCCCCCCCCCCCCC[N+](C)(C)C.[Br-]` [CTAB, cetyl trimethylammonium bromide]: in series [1], the PCR yield result is given as “did not improve PCR yield; also recorded: does not provide any apparent benefit”.

`CCCCCCCCCCCCOS(=O)(=O)[O-].[Na+]` [SDS, sodium dodecyl sulfate]: in series [1] (sulfate), the PCR yield entry is recorded as “did not improve PCR yield; also recorded: does not provide any apparent benefit”.
